One experiment addresses T1, SMYD2 (Homo sapiens, UniProt Q9NRG4).
T1 construct: Full length SMYD2 (NP_064582.2) was cloned; His6 (N, cleaved yes); FLAG (N); made in house; host or cells: Sf9 insect cells
As to the kind of experiment: SMYD2 biochemical assay (3H-SAM, biotinylated peptide substrate, Flashplate). Particulars: Table 1; average of n = 1 to n = 50; read-out: SMYD2 Biochem IC50. In outline: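 Full-length His/FLAG-tagged SMYD2 (tag removed, Sf9-expressed) at 1.5 nM was preincubated with compound for 30 min at room temperature in Bicine pH 7.6 buffer with 2% DMSO. Reaction used 10 nM 3H-SAM and 60 nM biotinylated peptide, stopped with 600 uM cold SAM. Streptavidin-captured 3H-peptide counted; IC50 from 3- or 4-parameter fit.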
T1 sequence (Q9NRG4 whole entry): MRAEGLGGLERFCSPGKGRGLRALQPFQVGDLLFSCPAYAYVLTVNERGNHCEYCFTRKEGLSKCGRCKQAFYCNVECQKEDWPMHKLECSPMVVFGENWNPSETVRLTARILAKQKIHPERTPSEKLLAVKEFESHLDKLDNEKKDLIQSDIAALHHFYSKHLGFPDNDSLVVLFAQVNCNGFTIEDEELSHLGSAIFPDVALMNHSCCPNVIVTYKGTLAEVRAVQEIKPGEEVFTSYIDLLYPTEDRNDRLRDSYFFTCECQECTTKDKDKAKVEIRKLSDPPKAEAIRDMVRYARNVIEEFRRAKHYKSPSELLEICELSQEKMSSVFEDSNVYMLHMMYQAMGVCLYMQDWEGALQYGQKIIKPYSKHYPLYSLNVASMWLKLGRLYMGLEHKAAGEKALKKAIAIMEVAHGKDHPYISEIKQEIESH
As for `C[C@H]1CN(C2CC2)C[C@@H]1NC(=O)Cc1ccc2c(c1)NC(=O)CO2` (racemic) [compound 3, (±)-trans-N-(1-cyclopropyl-4-methylpyrrolidin-3-yl)-2-(3-oxo-3,4-dihydro-2H-benzo[b][1,4]oxazin-6-yl)acetamide], the IC50 was above 50 µM.

As for `C[C@H]1CN(C2CC2)C[C@@H]1NC(=O)c1ccc2c(c1)OC(F)(F)O2` (racemic) [compound 1, (±)-trans-N-(1-cyclopropyl-4-methylpyrrolidin-3-yl)-2,2-difluorobenzo[d][1,3]dioxole-5-carboxamide], the IC50 is above 50 µM.

In the case of `C[C@@H]1CN(C2CC2)C[C@H]1NC(=O)c1cc(O)nn1C` (racemic) [compound 15, (±)-trans-H-(1-cyclopropyl-4-methylpyrrolidin-3-yl)-3-hydroxy-1-methyl-1H-pyrazole-5-carboxamide], the IC50 was above 50 µM.

Take `C[C@H]1CN(C2CC2)C[C@H]1NC(=O)c1ccc2[nH]c(=O)[nH]c2c1` (racemic) [compound 23, (±)-cis-N-(1-cyclopropyl-4-methylpyrrolidin-3-yl)-2-oxo-2,3-dihydro-1H-benzo[d]imidazole-5-carboxamide]: the IC50 was above 50 µM.

On to `Cc1cc(C(=O)N[C@H]2CN(C3CC3)C[C@@H]2C)n(Cc2ccccc2)n1` (racemic) [compound 9, (±)-trans-1-benzyl-N-(1-cyclopropyl-4-methylpyrrolidin-3-yl)-3-methyl-1H-pyrazole-5-carboxamide], for which the IC50 is above 50 µM.

With `C[C@H]1CN(C2CC2)C[C@H]1NC(=O)c1ccc2c(c1)CC(=O)N2` (racemic) [Cpd. No. 6, (±)-cis-N-(1-cyclopropyl-4-methylpyrrolidin-3-yl)-2-oxoindoline-5-carboxamide], the IC50 was above 50 µM.

The experiment is the same for the next values; noted with them: Table 3; average of n = 1 to n = 50; read-out: SMYD2 Biochem IC50.
Take `CC(C)N1C[C@H](C)[C@H](NC(=O)c2cc(C3CC3)sn2)C1` (racemic) [compound 93, (±)-cis-5-cyclopropyl-N-[4-methyl-1-(propan-2-yl)pyrrolidin-3-yl]-1,2-thiazole-3-carboxamide]: the IC50 turned out to be 0.776 µM.

In the case of `CCN1C[C@H](C)[C@H](NC(=O)c2cc(C3CC3)cnn2)C1` (racemic) [compound 100, (±)-cis-5-cyclopropyl-N-(1-ethyl-4-methylpyrrolidin-3-yl)pyridazine-3-carboxamide], the IC50 is 0.611 µM.

With `CC(C)N1C[C@H](C)[C@H](NC(=O)c2cncc(C3CC3)n2)C1` (racemic) [compound 42, (±)-cis-6-cyclopropyl-N-[4-methyl-1-(propan-2-yl)pyrrolidin-3-yl]pyrazine-2-carboxamide], the IC50 is above 50 µM.

In the case of `CC(C)N1C[C@@H](C)[C@@H](NC(=O)c2cnn(C(C)C)c2)C1` (racemic) [compound 46, (±)-cis-N-[4-methyl-1-(propan-2-yl)pyrrolidin-3-yl]-1-(propan-2-yl)-1H-pyrazole-4-carboxamide], the IC50 is above 50 µM.

For `CC(C)N1C[C@@H](C)[C@H](NC(=O)CCN2CCCC2)C1` (racemic) [compound 55, (±)-trans-N-[4-methyl-1-(propan-2-yl)pyrrolidin-3-yl]-3-(pyrrolidin-1-yl)propanamide], the IC50 was above 50 µM.

With `CC(C)N1C[C@@H](C)[C@H](NC(=O)c2nc(C3CC3)cs2)C1` (racemic) [compound 36, (±)-trans-4-cyclopropyl-N-[4-methyl-1-(propan-2-yl)pyirolidin-3-yl]-1,3-thiazole-2-carboxamide], the IC50 was above 50 µM.

Regarding `CC(C)N1C[C@@H](C)[C@H](NC(=O)c2nnc(C3CC3)o2)C1` (racemic) [compound 49, (±)-trans-5-cyclopropyl-N-[4-methyl-1-(propan-2-yl)pyrrolidin-3-yl]-1,3,4-oxadiazole-2-carboxamide], the IC50 is 26.8 µM.

For the compound `CC(C)N1C[C@@H](C)[C@H](NC(=O)c2ncc(C3CC3)[nH]2)C1` (racemic) [compound 74, (±)-trans-5-cyclopropyl-N-[4-methyl-1-(propan-2-yl)pyrrolidin-3-yl]-1H-imidazole-2-carboxamide], the IC50 worked out at 24.3 µM.

With `CC(C)N1C[C@@H](C)[C@H](NC(=O)c2cnc(C3CC3)cn2)C1` (racemic) [compound 52, (±)-trans-5-cyclopropyl-N-[4-methyl-1-(propan-2-yl)pyrrolidin-3-yl]pyrazine-2-carboxamide], the IC50 was above 50 µM.

Regarding `CC(C)N1C[C@H](C)[C@H](NC(=O)c2nccc(C3CC3)n2)C1` (racemic) [compound 60, (±)-cis-4-cyclopropyl-N-[4-methyl-1-(propan-2-yl)pyrrolidin-3-yl]pyrimidine-2-carboxamide], the IC50 is above 50 µM.

Consider `CC(C)N1C[C@@H](C)[C@H](NC(=O)c2cc(C3CC3)ncn2)C1` (racemic) [compound 68, (±)-trans-6-cyclopropyl-N-[4-methyl-1-(propan-2-yl)pyrrolidin-3-yl]pyrimidine-4-carboxamide], for which the IC50 is above 50 µM.

For the compound `CC(C)N1C[C@H](C)[C@H](NC(=O)c2cn(C3CC3)nn2)C1` (racemic) [compound 27, (±)-cis-1-cyclopropyl-N-[4-methyl-1-(propan-2-yl)pyrrolidin-3-yl]-1H-1,2,3-triazole-4-carboxamide], the IC50 stood at 0.781 µM.

Take `CC(C)N1C[C@@H](C)[C@H](NC(=O)c2ncc(C3CC3)cn2)C1` (racemic) [compound 66, (±)-trans-5-cyclopropyl-N-[4-methyl-1-(propan-2-yl)pyrrolidin-3-yl]pyrimidine-2-carboxamide]: the IC50 was above 50 µM.

For the compound `C[C@H]1CN(Cc2ccc(OCc3ccccc3)cc2)C[C@H]1NC(=O)c1cn(C2CC2)nn1` (stereo in doubt) [compound 106, (±)-cis-N-(1-{[4-(benzyloxy)phenyl]methyl}-4-methylpyrrolidin-3-yl)-1-cyclopropyl-1H-1,2,3-triazole-4-carboxamide], the IC50 worked out at 0.46 µM.

Take `CC(C)N1C[C@@H](C)[C@H](NC(=O)c2ccn(C(C)C)n2)C1` (racemic) [compound 45, (±)-trans-N-[4-methyl-1-(propan-2-yl)pyrrolidin-3-yl]-1-(propan-2-yl)-1H-pyrazole-3-carboxamide]: the IC50 is above 50 µM.

On to `CC(C)N1C[C@H](C)[C@H](NC(=O)c2cc(C3CC3)[nH]n2)C1` (racemic) [compound 61, (±)-cis-5-cyclopropyl-N-[4-methyl-1-(propan-2-yl)pyrrolidin-3-yl]-1H-pyrazole-3-carboxamide], for which the IC50 is above 50 µM.

In the case of `CC(C)N1C[C@H](C)[C@H](NC(=O)c2cc(C3CC3)ccn2)C1` (racemic) [compound 105, (±)-cis-4-cyclopropyl-N-[4-methyl-1-(propan-2-yl)pyrrolidin-3-yl]pyridine-2-carboxamide], the IC50 was determined as 0.694 µM.

With `CC(C)N1C[C@H](C)[C@H](NC(=O)c2nc(C3CC3)cs2)C1` (racemic) [compound 35, (±)-cis-4-cyclopropyl-N-[4-methyl-1-(propan-2-yl)pyrrolidin-3-yl]-1,3-thiazole-2-carboxamide], the IC50 is above 50 µM.

For the compound `CC(C)N1C[C@@H](C)[C@H](NC(=O)c2cc(C3CC3)cnn2)C1` (racemic) [compound 111, (±)-trans-5-cyclopropyl-N-[4-methyl-1-(propan-2-yl)pyrrolidin-3-yl]pyridazine-3-carboxamide], the IC50 is 12 µM.

For the compound `CC(C)N1C[C@@H](C)[C@H](NC(=O)c2ncc(C3CC3)s2)C1` (racemic) [compound 72, (±)-trans-5-cyclopropyl-N-[4-methyl-1-(propan-2-yl)pyrrolidin-3-yl]-1,3-thiazole-2-carboxamide], the IC50 was above 50 µM.

Turning to `CC(=O)N[C@@H]1CN(C(C)C)C[C@@H]1C` (racemic) [compound 40, (±)-cis-N-[4-methyl-1-(propan-2-yl)pyrrolidin-3-yl]acetamide], the IC50 was above 50 µM.

As for `CC(C)N1C[C@@H](C)[C@H](NC(=O)c2cnnc(C3CC3)c2)C1` (racemic) [compound 65, (±)-trans-6-cyclopropyl-N-[4-methyl-1-(propan-2-yl)pyrrolidin-3-yl]pyridazine-4-carboxamide], the IC50 was above 50 µM.

The experiment is the same for the next values; noted with them: Table 4; average of n = 1 to n = 50; read-out: SMYD2 Biochem IC50.
In the case of `C[C@@H]1CN(Cc2ccc(OCc3ccccc3)cc2)C[C@@H]1NC(=O)c1cn(C2CC2)nn1` (stereo in doubt) [compound 131, rac-N-((3R,4R)-1-(4-(benzyloxy)benzyl)-4-methylpyrrolidin-3-yl)-1-cyclopropyl-1H-1,2,3-triazole-4-carboxamide], the IC50 is 0.46 µM.

Take `CC(C)N1CC(NC(=O)c2cc(C3CC3)cnn2)CC1C` (stereo not drawn) [compound 125, 5-cyclopropyl-N-(1-isopropyl-5-methylpyrrolidin-3-yl)pyridazine-3-carboxamide]: the IC50 is 11.5 µM.

For `CC(C)c1cnnc(C(=O)N[C@@H]2CN(C(C)C)C[C@@H]2C)c1` (racemic) [compound 124, rac-5-isopropyl-N-((3R,4R)-1-isopropyl-4-methylpyrrolidin-3-yl)pyridazine-3-carboxamide], the IC50 came to 10.4 µM.

In the case of `C[C@H]1CN(Cc2ccc(OCc3ccccc3)cc2)C[C@@H]1NC(=O)c1cc(C2CC2)cnn1` (racemic) [compound 132, rac-N-((3R,4S)-1-(4-(benzyloxy)benzyl)-4-methylpyrrolidin-3-yl)-5-cyclopropylpyridazine-3-carboxamide], the IC50 was 2.7 µM.

Regarding `C[C@H]1CN(S(=O)(=O)CCCN)C[C@H]1NC(=O)c1cc(C2CC2)cnn1` (racemic) [compound 126, rac-N-((3R,4R)-1-((3-aminopropyl)sulfonyl)-4-methylpyrrolidin-3-yl)-5-cyclopropylpyridazine-3-carboxamide], the IC50 is above 50 µM.

For the origin of these results see patent publication US20170247326A1, “Substituted Pyrrolidine Carboxamide Compounds” (EPIZYME, INC., priority 2014, published 2017).
